How the values were obtained:
Prothrombin = Prothrombin (Homo sapiens, UniProt P00734); experiment: Inhibition of thrombin
[1] = Inhibition of trypsin
[2] = Selectivity ratio of IC50 for trypsin to IC50 for thrombin

Compound	IC50 (Prothrombin)	IC50 [1]	Ratio IC50 [2]
CCc1ccc(S(=O)(=O)Nn2ccc(C)c(CC(=O)NCc3ccnc(N)c3)c2=O)cc1	> 44400 nM		
Cc1ccn(NS(=O)(=O)c2ccc(Cl)c(Cl)c2)c(=O)c1CC(=O)NCc1ccc(C(=N)N)cc1	885 nM	10300 nM	12
Cc1ccn(NCCc2ccccc2)c(=O)c1CC(=O)NCc1ccc(C(=N)N)cc1	91 nM	1420 nM	16
COc1cc(Cl)ccc1S(=O)(=O)Nn1ccc(C)c(CC(=O)NCc2ccc(C(=N)N)cc2)c1=O	307 nM	4130 nM	13
COc1ccc(S(=O)(=O)Nn2ccc(C)c(CC(=O)NCc3ccc(C(=N)N)cc3)c2=O)cc1	1850 nM	3410 nM	1.8
Cc1ccnc(CNC(=O)Cc2c(C)ccn(NS(=O)(=O)c3c(C)cccc3Cl)c2=O)c1F	> 44400 nM	> 44400 nM	
COc1cc(C)ccc1S(=O)(=O)Nn1ccc(C)c(CC(=O)NCc2ccc(C(=N)N)cc2)c1=O	1180 nM	2020 nM	1.7
Cc1ccn(NCS(=O)(=O)c2ccc(Cl)cc2)c(=O)c1CC(=O)NCc1ccnc(N)c1	> 44400 nM		
Cc1ccnc(CNC(=O)Cc2c(C)ccn(NS(=O)(=O)c3ccccc3S(C)(=O)=O)c2=O)c1F	> 44400 nM		
Cc1ccn(NS(=O)(=O)Cc2ccccc2)c(=O)c1CC(=O)NCc1ccc(C(=N)N)cc1	1920 nM	15200 nM	7.9
Cc1cc(-c2ccc(S(=O)(=O)Nn3ccc(C)c(CC(=O)NCc4ccc(N)nc4)c3=O)cc2)c(C)s1	> 44400 nM		
CCCc1ccc(S(=O)(=O)Nn2ccc(C)c(CC(=O)NCc3nccc(C)c3F)c2=O)cc1	> 44400 nM		
Cc1ccn(NS(=O)(=O)c2cccc3ccccc23)c(=O)c1CC(=O)NCc1ccc(C(=N)N)cc1	1240 nM	17100 nM	14
COc1cccc(S(=O)(=O)Nn2ccc(C)c(CC(=O)NCc3ccc(C(=N)N)cc3)c2=O)c1	1050 nM	15600 nM	15
Cc1ccc(C)c(CCNn2ccc(C)c(CC(=O)NCc3ccc(C(=N)N)cc3)c2=O)c1		2140 nM	23
Cc1ccn(/N=C/Cc2cccc(C(F)(F)F)c2)c(=O)c1CC(=O)NCc1ccc(N)nc1	2710 nM	> 44400 nM	> 16
COc1ccc(S(=O)(=O)Nn2ccc(C)c(CC(=O)NCc3ccc(N)nc3)c2=O)c(OC)c1	> 44400 nM	> 4400 nM	
Cc1ccn(NS(=O)(=O)c2ccccc2)c(=O)c1CC(=O)NCc1ccc(C(=N)N)cc1	2470 nM	5770 nM	2.3
Cc1ccc(C)c(S(=O)(=O)Nn2ccc(C)c(CC(=O)NCc3ccc(C(=N)N)cc3)c2=O)c1	578 nM	7130 nM	12
Cc1ccccc1CCNn1ccc(C)c(CC(=O)NCc2ccc(C(=N)N)cc2)c1=O	23 nM	963 nM	42
Cc1ccnc(CNC(=O)Cc2c(C)ccn(NCCc3cc(Cl)ccc3F)c2=O)c1F	> 44400 nM		
